Experimental data: the NIST ThermoML archive (doi:10.1016/j.jct.2015.04.029)
± gives the expanded uncertainty stated by the source.

Assays:
[1] = for mass density: 101.33 kPa, Vibrating tube method; for mass density / surface tension liquid-gas: Liquid; for surface tension liquid-gas: Maximal bubble pressure; for Glass transition temperature: DSC
[2] = refractive index (Na D-line) (dimensionless); conditions: 101.33 kPa, Liquid, Standard Abbe refractometry

SMILES	mass density ([1]; 298.15 K)	surface tension liquid-gas ([1]; 298.15 K)	mass density ([1]; 303.15 K)	surface tension liquid-gas ([1]; 303.15 K)	mass density ([1]; 308.15 K)	surface tension liquid-gas ([1]; 308.15 K)	mass density ([1]; 313.15 K)	surface tension liquid-gas ([1]; 313.15 K)	mass density ([1]; 318.15 K)	surface tension liquid-gas ([1]; 318.15 K)	mass density ([1]; 323.15 K)	surface tension liquid-gas ([1]; 323.15 K)	mass density ([1]; 328.15 K)	surface tension liquid-gas ([1]; 328.15 K)	mass density ([1]; 333.15 K)	surface tension liquid-gas ([1]; 333.15 K)	mass density ([1]; 338.15 K)	surface tension liquid-gas ([1]; 338.15 K)	Glass transition temperature [1]	refractive index ([2]; 298.15 K)	other results
CCC[n+]1ccn(C)c1.N[C@@H](CO)C(=O)[O-] [1-methyl-3-propylimidazolium L-serinate]	1181.51 ± 1.1 kg/m3	46.8 ± 0.5 mN/m	1178.34 ± 1.1 kg/m3	46.6 ± 0.4 mN/m	1175.19 ± 1.1 kg/m3	46.4 ± 0.4 mN/m	1172.03 ± 1.1 kg/m3	46.1 ± 0.4 mN/m	1168.88 ± 1.1 kg/m3	45.8 ± 0.4 mN/m	1165.67 ± 1.1 kg/m3	45.6 ± 0.4 mN/m	1162.6 ± 1.1 kg/m3	45.4 ± 0.4 mN/m	1159.49 ± 1.1 kg/m3	45.1 ± 0.4 mN/m	1156.42 ± 1.1 kg/m3	44.9 ± 0.4 mN/m	-54.5 ± 1 °C	1.5179 ± 0.0005	refractive index ([2]; 303.15 K): 1.5165 ± 0.0005; refractive index ([2]; 308.15 K): 1.5153 ± 0.0005; refractive index ([2]; 313.15 K): 1.5141 ± 0.0005; refractive index ([2]; 318.15 K): 1.5131 ± 0.0005; refractive index ([2]; 323.15 K): 1.5123 ± 0.0005; refractive index ([2]; 328.15 K): 1.5112 ± 0.0005; refractive index ([2]; 333.15 K): 1.51 ± 0.0005; refractive index ([2]; 338.15 K): 1.5086 ± 0.0005
CCCCn1cc[n+](C)c1.N[C@@H](CO)C(=O)[O-] [1-butyl-3-methylimidazolium L-serinate]	1156.04 ± 1.1 kg/m3	45.4 ± 0.4 mN/m	1152.82 ± 1.1 kg/m3	45.2 ± 0.4 mN/m	1149.61 ± 1.1 kg/m3	45 ± 0.4 mN/m	1146.45 ± 1.1 kg/m3	44.7 ± 0.4 mN/m	1143.31 ± 1.1 kg/m3	44.4 ± 0.4 mN/m	1140.08 ± 1.1 kg/m3	44.3 ± 0.4 mN/m	1136.91 ± 1.1 kg/m3	44 ± 0.4 mN/m	1133.81 ± 1.1 kg/m3	43.8 ± 0.4 mN/m	1130.64 ± 1.1 kg/m3	43.5 ± 0.4 mN/m	-47.20 ± 1 °C	1.5143 ± 0.0005	refractive index ([2]; 303.15 K): 1.5135 ± 0.0005; refractive index ([2]; 308.15 K): 1.5126 ± 0.0005; refractive index ([2]; 313.15 K): 1.5114 ± 0.0005; refractive index ([2]; 318.15 K): 1.5106 ± 0.0005; refractive index ([2]; 323.15 K): 1.5096 ± 0.0005; refractive index ([2]; 328.15 K): 1.5091 ± 0.0005; refractive index ([2]; 333.15 K): 1.5077 ± 0.0005; refractive index ([2]; 338.15 K): 1.5069 ± 0.0005
